Experimental data taken from US20250353891A1 (MEDIMMUNE LIMITED, priority 2022, published 2025).
“And” between values parts separate entries of the source, which are not always exact repeats. Equal values may be shown once. Starred links: 1 amine or outer side, 2 acyl side, 3 side chain; linkers in the order of their positions; H or OH if unused. Non-standard residues stand in square brackets, D forms with d. Residues, ends and D or L forms follow the SMILES beside them. Groups on a side chain read outwards from the residue. *: point of attachment. γGlu = O=C(O)[C@H](CCC(=O)[*:2])N[*:1]; Stearoyl = CCCCCCCCCCCCCCCCCC(=O)*; αMeF = C[C@](N)(Cc1ccccc1)C(=O)O; PEG2 = NCCOCCOCCC(=O)O; Aib = CC(C)(N)C(=O)O

Columns and labels:
[1] = test system: GLP-1R knockout (KO) mice; assay: Glucose change in GLP-1R knockout mice; type: in vivo, mouse; settings: GLP-1R KO mice, s.c.; for GLP-1R KO % glucose change 120 min: 120 min vs 0 min, somatostatin pretreatment (octreotide) 30 min prior to cpd; for GLP-1R KO % glucose change - 60 min: 60 min vs 0 min, no somatostatin pretreatment
Description: (§1) They acclimated for a minimum of ˜1-2 weeks, and mice were sorted into groups (n=4-8/group) based on body weight. On day of study, mice were fasted briefly for 2 hrs prior to study start. In some studies, mice were pre-treated with octreotide (BaChem, 10 mg/kg) at 30 minutes prior to peptide injection. Glucose was measured via glucometer at various timepoints including-30 min (prior to octreotide when used in studies), 0 min (before peptide dose), 30, 60, 120, 180, 240, and 360 minutes. Since these studies are acute in nature, mice were re-used for multiple studies (no more than 3) and always allowed at least a minimum wash-out period of 1 week.

wildtype (WT) mice = assay: Glucose change in wildtype mice; type: in vivo, mouse; settings: s.c.; for WT % glucose change 120 min: 120 min vs 0 min, somatostatin pretreatment (octreotide) 30 min prior to cpd; for WT % glucose change 60 min: 60 min vs 0 min, no somatostatin pretreatment
Description: as §1, with “GLP-1R knockout (KO) and wildtype (WT) mice at 8-14 weeks of age were singly housed on standard chow diet (Envigo, 2918) and automatic water. They” for “They”

[2] = target: human GLP-1 receptor (hGLP-1R) (Homo sapiens, UniProt P43220); assay: cAMP production (HTRF) in CHO cells expressing hGLP-1R; type: cell-based; design: expressed in transfected cells
Summary of the method: (§2)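 Cells were resuspended in assay buffer at batch-optimized density, typically 1×10^5 cells/mL for hGLP-1R and 2×10^5 cells/mL for hGCGR. After 30 min incubation at room temperature with compound, cAMP was measured by two-step HTRF. EC50 values came from 4-parameter logistic fits of % Delta F.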

[3] = target: human glucagon receptor (hGCGR) (Homo sapiens, UniProt P47871); assay: cAMP production (HTRF) in CHO cells expressing hGCGR; type: cell-based; design: expressed in transfected cells; settings: Table 6, peptides modified at position 17; cAMP in CHO hGCGR cells; geometric mean; read-out: hGluc-R EC50
Summary of the method: as §2

[4] = Mouse acute food intake study; type: in vivo; settings: male C57Bl/6 mice, s.c., cumulative food intake at 24 hr vs vehicle
Summary of the method: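 Peptide or vehicle went subcutaneously (5 mL/kg) to 6-8 h-fasted male C57Bl/6 mice shortly before the dark phase, with groups balanced on body weight and 24-hour intake. Cumulative food consumption was derived from 48 h of automated BioDaq monitoring with free food and water access.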

Chain of human GLP-1 receptor (hGLP-1R) (P43220 24-463): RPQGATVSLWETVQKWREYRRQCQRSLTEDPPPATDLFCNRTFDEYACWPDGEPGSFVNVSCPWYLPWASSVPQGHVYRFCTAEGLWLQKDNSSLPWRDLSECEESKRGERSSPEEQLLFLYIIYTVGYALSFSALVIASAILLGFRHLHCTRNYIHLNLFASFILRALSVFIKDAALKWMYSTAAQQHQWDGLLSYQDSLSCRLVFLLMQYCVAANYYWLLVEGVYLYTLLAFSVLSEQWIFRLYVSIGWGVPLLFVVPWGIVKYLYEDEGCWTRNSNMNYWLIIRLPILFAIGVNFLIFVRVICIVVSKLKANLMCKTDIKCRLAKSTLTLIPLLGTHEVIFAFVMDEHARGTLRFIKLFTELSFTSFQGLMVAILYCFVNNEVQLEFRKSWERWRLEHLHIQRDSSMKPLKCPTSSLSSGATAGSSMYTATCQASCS
Chain of human glucagon receptor (hGCGR) (P47871 26-477): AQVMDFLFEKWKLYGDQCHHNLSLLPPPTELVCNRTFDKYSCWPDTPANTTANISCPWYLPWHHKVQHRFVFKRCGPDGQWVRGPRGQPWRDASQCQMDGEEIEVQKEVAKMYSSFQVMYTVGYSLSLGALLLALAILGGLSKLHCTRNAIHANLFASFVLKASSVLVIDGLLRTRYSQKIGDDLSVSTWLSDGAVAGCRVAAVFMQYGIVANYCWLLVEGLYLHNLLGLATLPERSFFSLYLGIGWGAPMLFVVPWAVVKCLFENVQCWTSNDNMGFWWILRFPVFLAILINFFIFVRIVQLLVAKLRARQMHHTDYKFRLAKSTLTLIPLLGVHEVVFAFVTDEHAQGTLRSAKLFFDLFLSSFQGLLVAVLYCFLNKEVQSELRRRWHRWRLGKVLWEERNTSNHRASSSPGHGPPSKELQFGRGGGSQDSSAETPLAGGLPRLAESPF

| SMILES | GLP-1R KO % glucose change 120 min ([1]; 10 nmol/kg) | GLP-1R KO % glucose change 120 min ([1]; 30 nmol/kg) | WT % glucose change 120 min (wildtype (WT) mice; 10 nmol/kg) | WT % glucose change 120 min (wildtype (WT) mice; 30 nmol/kg) | EC50 ([2]; Table 6, peptides modified at position 17, cAMP in CHO hGLP-1R cells, geometric mean, read-out: hGLP-1R EC50) | % Relative Potency Ratio ([2]; Table 6, % GLP-1R activity relative to GLP-1 / % GlucR activity relative to glucagon) | EC50 [3] | 24 hr % Vehicle Food Intake ([4]; dose 1 nmol/kg) | 24 hr % Vehicle Food Intake ([4]; dose 3 nmol/kg) | 24 hr % Vehicle Food Intake ([4]; dose 10 nmol/kg) | GLP-1R KO % glucose change - 60 min ([1]; 10 nmol/kg) | GLP-1R KO % glucose change - 60 min ([1]; 30 nmol/kg) | WT % glucose change 60 min (wildtype (WT) mice; 10 nmol/kg) | WT % glucose change 60 min (wildtype (WT) mice; 30 nmol/kg) |
| --- | --- | --- | --- | --- | --- | --- | --- | --- | --- | --- | --- | --- | --- | --- |
| CCCCCCCCCCCCCCCCCC(=O)N[C@@H](CCC(=O)N[C@@H](CCC(=O)NCCOCCOCCC(=O)NCCOCCOCCC(=O)NCCCC[C@H](NC(=O)[C@H](CO)NC(=O)[C@H](CC(=O)O)NC(=O)[C@H](CC(C)C)NC(=O)C(C)(C)NC(=O)[C@H](CCCCN)NC(=O)[C@H](CO)NC(=O)[C@@H](NC(=O)[C@H](CC(=O)O)NC(=O)[C@H](CO)NC(=O)[C@@H](NC(=O)[C@](C)(Cc1ccccc1)NC(=O)[C@H](CO)NC(=O)CNC(=O)[C@H](CCC(N)=O)NC(=O)[C@H](CO)NC(=O)[C@@H](N)Cc1c[nH]cn1)[C@@H](C)O)C(C)C)C(=O)N[C@@H](C)C(=O)N[C@@H](C)C(=O)N[C@@H](CCC(N)=O)C(=O)N[C@@H](CC(=O)O)C(=O)N[C@@](C)(Cc1ccccc1)C(=O)N[C@H](C(=O)N[C@@H](CCC(N)=O)C(=O)NC(C)(C)C(=O)N[C@H](C(=O)N[C@@H](C)C(=O)N[C@@H](CC(N)=O)C(N)=O)[C@@H](C)CC)C(C)C)C(=O)O)C(=O)O [Peptide 97] (H-HSQGS[αMeF]TSDVSK[Aib]LDSK([PEG2-PEG2-γGlu-γGlu-Stearoyl])AAQD[αMeF]VQ[Aib]IAN-NH2; N-terminus assumed) | 91.1% | 150.8% | −41.9% | −14.7% | 1.05 pM | 24.3 | 13 pM | – | – | – | – | – | – | – |
| CC(C)C[C@H](NC(=O)[C@H](Cc1c[nH]c2ccccc12)NC(=O)[C@H](CCC(N)=O)NC(=O)[C@@H](NC(=O)[C@H](Cc1ccccc1)NC(=O)[C@H](CC(=O)O)NC(=O)[C@H](CCCNC(=N)N)NC(=O)[C@H](C)NC(=O)[C@H](CCCNC(=N)N)NC(=O)[C@H](CCCCNC(=O)COCCOCCNC(=O)COCCOCCNC(=O)CC[C@H](NC(=O)CCCCCCCCCCCCCCCCCCC(=O)O)C(=O)O)NC(=O)[C@@H](NC(=O)[C@H](CC(=O)O)NC(=O)[C@H](CC(C)C)NC(=O)[C@](C)(Cc1ccccc1)NC(=O)[C@H](CCCCN)NC(=O)[C@H](CO)NC(=O)[C@@H](NC(=O)[C@H](CC(=O)O)NC(=O)[C@H](CO)NC(=O)[C@@H](NC(=O)[C@H](Cc1ccccc1)NC(=O)[C@@H](NC(=O)CNC(=O)[C@H](CCC(N)=O)NC(=O)C(C)(C)NC(=O)[C@@H](N)Cc1c[nH]cn1)[C@@H](C)O)[C@@H](C)O)C(C)C)[C@@H](C)O)C(C)C)C(=O)N[C@@H](CC(C)C)C(=O)N[C@@H](CCC(=O)O)C(=O)NC(C)(C)C(=O)NCC(=O)O [Peptide 195, H-Aib-Q-G-T-F-T-S-D-V—S-K-αMePhe-L-D-T-K-R-A-R-D-F-V-Q-W-L-L-E-Aib-G-acid] | – | – | – | – | – | – | – | 102.1% | 84.0% | 58.2% and 49.9% | 35.3% | 48.0% | 1.4% | −17.0% |
